These compounds were tested on rabbit skeletal myofibrils (fast skeletal myofibrils) (assay: Activation of fast skeletal myofibrils (PUMA assay, AC1.4)). Settings: calcium at pCa25, AC1.4 = concentration at which the compound increased the enzymatic activity.
Format: biochemical
How it was run: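 Detergent-washed rabbit psoas myofibrils (~90% fast fibers), calcium set to give 25% of maximal rate (pCa25). ATPase followed by pyruvate kinase/lactate dehydrogenase-coupled NADH oxidation, absorbance at 340 nm. PM12 buffer: 12 mM PIPES, 2 mM MgCl2, 1 mM DTT, pH 6.8.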
Work on `CC[C@H](C)[C@H]1C(=O)Nc2ccccc2CN1C(=O)N(C)C(C)C` [Compound 297, (S)-3-((S)-sec-butyl)-N-isopropyl-N-methyl-2-oxo-1,2,3,5-tetrahydro-4H-benzo[e][1,4]diazepine-4-carboxamide] yielded an AC1.4 of 1.13 µM.
`CC[C@H](C)[C@H]1C(=O)Nc2ccccc2CN1C(=O)Nc1cncc(C(N)=O)c1` [Compound 298, (S)-3-((S)-sec-butyl)-N-(5-carbamoylpyridin-3-yl)-2-oxo-1,2,3,5-tetrahydro-4H-benzo[e][1,4]diazepine-4-carboxamide] showed an AC1.4 of 0.07 µM.
Work on `CC[C@H](C)[C@H]1C(=O)Nc2ccccc2CN1C(=O)Nc1ccn(CCOC)n1` [Compound 299, (S)-3-((S)-sec-butyl)-N-(1-(2-methoxyethyl)-1H-pyrazol-3-yl)-2-oxo-1,2,3,5-tetrahydro-4H-benzo[e][1,4]diazepine-4-carboxamide] yielded an AC1.4 of 0.18 µM.
Work on `CC[C@H](C)[C@H]1C(=O)Nc2ccccc2CN1C(=O)N1CC(F)(F)C1` [Compound 300, (S)-3-((S)-sec-butyl)-4-(3,3-difluoroazetidine-1-carbonyl)-1,3,4,5-tetrahydro-2H-benzo[e][1,4]diazepin-2-one] yielded an AC1.4 of 0.42 µM.
`CC[C@H](C)[C@H]1C(=O)Nc2ccccc2CN1C(=O)NC1CCN(CCO)CC1` [Compound 301, (S)-3-((S)-sec-butyl)-N-(1-(2-hydroxyethyl)piperidin-4-yl)-2-oxo-1,2,3,5-tetrahydro-4H-benzo[e][1,4]diazepine-4-carboxamide] gave an AC1.4 of 0.36 µM.
For `CC[C@H](C)[C@H]1C(=O)Nc2ccccc2CN1C(=O)N1CCC[C@@H](CO)C1` [Compound 302, (S)-3-((S)-sec-butyl)-4-((R)-3-(hydroxymethyl)piperidine-1-carbonyl)-1,3,4,5-tetrahydro-2H-benzo[e][1,4]diazepin-2-one], the AC1.4 was 0.82 µM.
`CC[C@H](C)[C@H]1C(=O)Nc2ccccc2CN1C(=O)N1CCC[C@H](CO)C1` [Compound 303, (S)-3-((S)-sec-butyl)--4-((S)-3-(hydroxymethyl)piperidine-1-carbonyl)-1,3,4,5-tetrahydro-2H-benzo[e][1,4]diazepin-2-one] was tested, and the AC1.4 was 0.89 µM.
`CC[C@H](C)[C@H]1C(=O)Nc2ccccc2CN1C(=O)N1CCCC(C(N)=O)C1` (stereo partly drawn) [Compound 304, 1-((S)-3-((S)-sec-butyl)-2-oxo-2,3,4,5-tetrahydro-1H-benzo[e][1,4]diazepine-4-carbonyl)piperidine-3-carboxamide] gave an AC1.4 of 2.27 µM.
With `CC[C@H](C)[C@H]1C(=O)Nc2ccccc2CN1C(=O)N1CCCC(C(N)=O)C1` (stereo partly drawn) [Compound 305, 1-((S)-3-((S)-sec-butyl)-2-oxo-2,3,4,5-tetrahydro-1H-benzo[e][1,4]diazepine-4-carbonyl)piperidine-3-carboxamide] the AC1.4 was 1.42 µM.
`CC[C@H](C)[C@H]1C(=O)Nc2ccccc2CN1C(=O)N1CC(F)C1` [Compound 306, (S)-3-((S)-sec-butyl)-4-(3-fluoroazetidine-1-carbonyl)-1,3,4,5-tetrahydro-2H-benzo[e][1,4]diazepin-2-one] gave an AC1.4 of 0.11 µM.
`CC[C@H](C)[C@H]1C(=O)Nc2ccccc2CN1C(=O)N[C@@H]1CCNC1` [Compound 307, (S)-3-((S)-sec-butyl)-2-oxo-N-((R)-pyrrolidin-3-yl)-1,2,3,5-tetrahydro-4H-benzo[e][1,4]diazepine-4-carboxamide] was tested, and the AC1.4 was 0.52 µM.
`CC[C@H](C)[C@H]1C(=O)Nc2ccccc2CN1C(=O)N[C@H]1CCNC1` [Compound 308, (S)-3-((S)-sec-butyl)-2-oxo-N-((S)-pyrrolidin-3-yl)-1,2,3,5-tetrahydro-4H-benzo[e][1,4]diazepine-4-carboxamide] gave an AC1.4 of 0.32 µM.
With `COCCN1Cc2ccccc2NC(=O)[C@@H]1C1CCCCCC1` [Compound 309, (S)-3-cycloheptyl-4-(2-methoxyethyl)-1,3,4,5-tetrahydro-2H-benzo[e][1,4]diazepin-2-one] the AC1.4 was 0.59 µM.
Work on `CC[C@H](C)[C@H]1C(=O)Nc2ccccc2CN1CCOC` [Compound 310, (S)-3-((S)-sec-butyl)-4-(2-methoxyethyl)-1,3,4,5-tetrahydro-2H-benzo[e][1,4]diazepin-2-one] yielded an AC1.4 of 4.17 µM.
`CC[C@H](C)[C@H]1C(=O)Nc2ccccc2CN1CC(=O)NC` [Compound 311, 2-((S)-3-((S)-sec-butyl)-2-oxo-1,2,3,4-tetrahydro-4H-benzo[e][1,4]diazepin-4-yl)-N-methylacetamide] showed an AC1.4 of 2.60 µM.
`CC[C@H](C)[C@H]1C(=O)Nc2ccccc2CN1CCC(N)=O` [Compound 312, 3-((S)-3-((S)-sec-butyl)-2-oxo-1,2,3,5-tetrahydro-4H-benzo[e][1,4]diazepin-4-yl)propanamide] was tested, and the AC1.4 was 1.22 µM.
`CC[C@H](C)[C@H]1C(=O)Nc2ccccc2CN1CCC(=O)N(C)C` [Compound 313, 3-((S)-3-((S)-sec-butyl)-2-oxo-1,2,3,5-tetrahydro-4H-benzo[e][1,4]diazepin-4-yl)-N,N-dimethylpropanamide] gave an AC1.4 of 1.22 µM.
In the case of `CC[C@H](C)[C@H]1C(=O)Nc2ccccc2CN1CCC(=O)NC` [Compound 314, 3-((S)-3-((S)-sec-butyl)-2-oxo-1,2,3,5-tetrahydro-4H-benzo[e][1,4]diazepin-4-yl)-N-methylpropanamide], the AC1.4 is reported as 0.72 µM.
For `CC[C@H](C)[C@H]1C(=O)Nc2ccccc2CN1CC1CCCC1` [Compound 315, (S)-3-((S)-sec-butyl)-4-(cyclopentylmethyl)-1,3,4,5-tetrahydro-2H-benzo[e][1,4]diazepin-2-one], the AC1.4 was 0.65 µM.
`CC[C@H](C)[C@H]1C(=O)Nc2ccccc2CN1CC#N` [Compound 316, 2-((S)-3-((S)-sec-butyl)-2-oxo-1,2,3,5-tetrahydro-4H-benzo[e][1,4]diazepin-4-yl)acetonitrile] gave an AC1.4 of 1.07 µM.
Work on `CC[C@H](C)[C@H]1C(=O)Nc2ccccc2C(CO)N1C(N)=O` (stereo partly drawn) [Compound 317, (3S)-3-((S)-sec-butyl)-5-(hydroxymethyl)-2-oxo-1,2,3,5-tetrahydro-4H-benzo[e][1,4]diazepine-4-carboxamide] yielded an AC1.4 of 1.30 µM.
Compound `CC[C@H](C)[C@H]1C(=O)Nc2ccccc2C2COC(=O)N21` (stereo partly drawn) [Compound 318, (5S)-5-((S)-sec-Butyl)-7,11b-dihydro-1H,3H-benzo[f]oxazolo[3,4-d][1,4]diazepine-3,6(5H)-dione] has an AC1.4 of 0.19 µM.
Compound `CC[C@H](C)[C@H]1C(=O)Nc2ccccc2[C@@H](C)N1C(=O)c1cnn(C)c1` [Compound 319, (3S,5R)-3-((S)-sec-butyl)-5-methyl-4-(1-methyl-1H-pyrazole-4-carbonyl)-1,3,4,5-tetrahydro-2H-benzo[e][1,4]diazepin-2-one] has an AC1.4 of 0.80 µM.
Compound `CC[C@H](C)[C@H]1C(=O)Nc2ccccc2[C@@H](C)N1C(N)=O` [Compound 320, (3S,5R)-3-((S)-sec-butyl)-5-methyl-2-oxo-1,2,3,5-tetrahydro-4H-benzo[e][1,4]diazepine-4-carboxamide] has an AC1.4 of 1.25 µM.
Compound `CC(C)[C@H]1C(=O)Nc2ccccc2CN1C(=O)c1ccn(C)n1` [Compound 322, (S)-3-isopropyl-4-(1-methyl-1H-pyrazole-3-carbonyl)-1,3,4,5-tetrahydro-2H-benzo[e][1,4]diazepin-2-one] has an AC1.4 of 1.15 µM.
`CC(C)[C@H]1C(=O)Nc2ccccc2CN1c1nccs1` [Compound 323, (S)-3-isopropyl-4-(thiazol-2-yl)-1,3,4,5-tetrahydro-2H-benzo[e][1,4]diazepin-2-one] was tested, and the AC1.4 was 0.66 µM.
Work on `Cc1nsc(N2Cc3ccccc3NC(=O)[C@@H]2C(C)C)n1` [Compound 324, (S)-3-isopropyl-4-(3-methyl-1,2,4-thiadiazol-5-yl)-1,3,4,5-tetrahydro-2H-benzo[e][1,4]diazepin-2-one] yielded an AC1.4 of 1.16 µM.
Work on `CC(C)[C@H]1C(=O)Nc2ccccc2CN1C(=O)N(C)C` [Compound 325, (S)-3-isopropyl-N,N-dimethyl-2-oxo-1,2,3,5-tetrahydro-4H-benzo[e][1,4]diazepine-4-carboxamide] yielded an AC1.4 of 1.81 µM.
`CC(=O)N1Cc2ccccc2NC(=O)[C@@H]1C(C)C` [Compound 326, (S)-4-acetyl-3-isopropyl-1,3,4,5-tetrahydro-2H-benzo[e][1,4]diazepin-2-one] gave an AC1.4 of 4.38 µM.
Compound `CC(C)[C@H]1C(=O)Nc2ccccc2CN1C(=O)c1cc[nH]c(=O)c1` [Compound 327, (S)-3-isopropyl-4-(2-oxo-1,2-dihydropyridine-4-carbonyl)-1,3,4,5-tetrahydro-2H-benzo[e][1,4]diazepin-2-one] has an AC1.4 of 1.50 µM.
Compound `CC(C)[C@H]1C(=O)Nc2ccccc2CN1C(=O)c1cnn(CCO)c1` [Compound 328, (S)-4-(1-(2-hydroxyethyl)-1H-pyrazole-4-carbonyl)-3-isopropyl-1,3,4,5-tetrahydro-2H-benzo[e][1,4]diazepin-2-one] has an AC1.4 of 2.56 µM.
`CC(C)[C@H]1C(=O)Nc2ccccc2CN1C(=O)c1ccc(C(N)=O)[nH]1` [Compound 329, (S)-5-(3-isopropyl-2-oxo-2,3,4,5-tetrahydro-1H-benzo[e][1,4]diazepine-4-carbonyl)-1H-pyrrole-2-carboxamide] showed an AC1.4 of 0.20 µM.
Compound `COCCn1cc(C(=O)N2Cc3ccccc3NC(=O)[C@@H]2C(C)C)cn1` [Compound 330, (S)-3-isopropyl-4-(1-(2-methoxyethyl)-1H-pyrazole-4-carbonyl)-1,3,4,5-tetrahydro-2H-benzo[e][1,4]diazepin-2-one] has an AC1.4 of 1.71 µM.
`CC(C)[C@H]1C(=O)Nc2ccccc2CN1C(=O)c1cn[nH]c1` [Compound 331, (S)-3-isopropyl-4-(1H-pyrazole-4-carbonyl)-1,3,4,5-tetrahydro-2H-benzo[e][1,4]diazepin-2-one] was tested, and the AC1.4 was 1.03 µM.
With `CC(C)[C@H]1C(=O)Nc2ccccc2CN1C(=O)N1CC(O)C1` [Compound 332, (S)-4-(3-hydroxyazetidine-1-carbonyl)-3-isopropyl-1,3,4,5-tetrahydro-2H-benzo[e][1,4]diazepin-2-one] the AC1.4 was 2.37 µM.
In the case of `CC(C)[C@H]1C(=O)Nc2ccccc2CN1S(=O)(=O)N(C)C` [Compound 333, (S)-3-isopropyl-N,N-dimethyl-2-oxo-1,2,3,5-tetrahydro-4H-benzo[e][1,4]diazepine-4-sulfonamide], the AC1.4 is reported as 2.44 µM.

From patent publication US12441691B2 (Cytokinetics, Inc., priority 2020, dated 2025)
